Reference: patent US5925618A, “Peptides useful as somatostatin antagonists” (American Cyanamid Company, priority 1998, dated 1999)
Square brackets hold non-standard residues; d marks the D form. Peptide text beside a SMILES is read from it.

Experiments:
Male Sprague-Dawley rats = assay: Serum growth hormone levels in anaesthetized rats (peptide 1, BIM 23014C); format: in vivo, rat
Description: Evaluation in anaesthetized rats. Male Sprague-Dawley rats are anaesthetized with Sagatal and fitted so as to allow efficient intravenous treatment with control and test compounds as well as frequent blood sampling. Blood samples are tested for growth hormone (GH) levels by radioimmunoassay. Thirty minutes after the initiation of blood sampling, rats are given 5 μg, 25 μg or 50 μg of peptide 1.

[1] = target: T1, S. cerevisiae (yeast) cells expressing SRIF receptors (Rattus norvegicus, UniProt P30680); assay: Yeast bioassay for SRIF antagonist activity (LY364 cells growing in response to SRIF, zone of growth inhibition); format: cell-based; settings: Sample type 4th iteration; 10 μL of 5 mg/mL on disk, SRIF 10 nM, read after 3 days
T1 construct: expressed in transfected cells; host or cells: S. cerevisiae strain LY364
Excerpt: SRIF antagonist assay using S. cerevisiae (yeast) cells expressing SRIF receptors that grow in response to SRIF
Agar plates containing LY364 cells that are growing in the presence of added SRIF are the basis for a sensitive SRIF antagonist assay, whereby zones of growth inhibition result from the addition of SRIF antagonists to the surface of the agar plate (see L. A. Price, et al., Molecular and Cellular Biology, 15, 6188-6195, 1995, incorporated herein by reference).
In this assay, LY364 cells are grown overnight in 2 mL of synthetic complete(SC) medium (3.4 g/L YNB without amino acids and ammonium sulfate, 10 g/L ammonium sulfate and 1.4 g/L CSM-ura-trp) with glucose (2%) and without uracil and tryptophan. These cells are washed and cultured for 4 to 8 hours in 5 mL of SC medium with lactate (3%) and without uracil and tryptophan, and finally grown overnight in 5 mL of SC medium with galactose (2%) and without uracil and tryptophan. Molten (50° C.) SC agar medium with galactose (2%) and without uracil, tryptophan and histidine is adjusted to pH 6.8 with KOH, mixed with 2×10^4 cells/mL and SRIF (S-14, 10 nM) and poured into square (20×20 cm) petri dishes. Sterile filter disks are placed on the surface of the agar, and saturated with 10 μL of water or DMSO containing 5 mg/mL test peptides. After three days, the plates display a uniform cloudy background of LY264 cells growing in response to the added SRIF. […] This zone is quantified by measuring its diameter (mm), which varies according to the potency of the SRIF antagonist. Those peptides or mixtures of peptides displaying the largest zones of inhibition are further characterized.
Values are compared among samples in the same experiment, as the degree of yeast growth varies somewhat from assay to assay. For the first five sample types, in which progressively less complex mixtures of peptides are found, this assay is the primary determining factor in choosing which samples form the basis of subsequent syntheses.
Plates are read after 3 days. Samples shown in Table I in bold type are chosen for further synthesis. In Table I, all amino acids are D-amino acids and dashes represent undefined amino acid residues.

rat SSTR2 = target: T2, rat SSTR2 (Rattus norvegicus, UniProt P30680); assay: cAMP accumulation in forskolin-stimulated GH4 C1/SSTR2 cells; format: cell-based; settings: GH4-C1; test peptide 2 μM; read-out: cAMP Assay, Intrinsic activity (percent reversal of SSTR2 activation by SRIF or MK678)
T2 construct: expressed in transfected cells; host or cells: GH4C1 rat pituitary tumor cells
Excerpt: A primary effect of SRIF upon mammalian cells is the reduction of cyclic adenosine 3',5'-monophosphate(cAMP) levels, via inhibition of adenylyl cyclase. This is the basis of a common assay for SRIF agonists and antagonists, whereby SRIF agonists reduce artificially stimulated cAMP levels, and SRIF antagonists reverse the effect of SRIF. The rat pituitary tumor cell line GH4 C1 predominantly expresses SSTR2, and responds to SRIF and to forskolin, a stimulator of adenylate cyclase (see C. M. Eppler, et al., J. Biol. Chem., 267, 15603-15612, 1992, incorporated herein by reference). A highly sensitive assay for SRIF agonists and antagonists results from additionally transfecting GH4 C1 cells with the cloned rat SSTR2, (see L. A. Price, et al., Molecular and Cellular Biology, 15, 6188-6195, 1995, incorporated herein by reference). This increases the response to SRIF and provides a greater dynamic range for the measurement of SRIF antagonist activity.
Stimulation of cells. GH4 C1 /SSTR2 cells, grown in DMEM with 10% bovine serum, are released from a tissue culture dish by incubation for several minutes at 37° C. with PBS containing 0.5 mM EDTA. Cells are washed in induction buffer (PBS containing 100 μM IBMX (an inhibitor of cAMP breakdown) and 2 mM CaCl2) at room temperature, and resuspended at 2×10^6 /mL in induction buffer. Into each well of a 96-well tray are added 50 μL of a 2× concentration of stimulants in induction buffer. These include (at final concentration) 1.25 μM forskolin, 100 nM SRIF or 10 nM of the SSTR2-selective agonist MK678 and test peptides at various concentrations. To initiate stimulation of the cells, 50 μL (100,000) cells are added to each well, mixed by shaking 10 seconds on a plate shaker and placed at 37° C. for 15 minutes. Stimulation is arrested and cells are lysed by adding 15 μL 0.33N HCl to each well and incubating the plate for 30 minutes at 37° C. Samples are neutralized by addition of 15 μL 0.25N NaOH/50 mM Hepes pH 7.4. Baseline cAMP levels are determined in samples with no added forskolin or SRIF, and each treatment is performed in triplicate.
cAMP assay. To measure accumulated cAMP in the samples, a radioimmunoassay is employed. The scintillation proximity assay (SPA, Amersham, Arlington Heights, Ill.) allows the rapid measurement of ^125 I cAMP bound to a specific antibody without separating bound radioligand from free radioligand. Each of the following reagents (50 μL) are added per well in a 96-well tray: supernatants from the cell stimulation; ^125 I cAMP; SPA beads conjugated to monkey anti-rabbit IgG antibodies; and rabbit anti-cAMP antibodies. For the standard curve, known amounts of cAMP (0.2-12.8 pmol) are added in place of cell supernatants. The 96-well tray is sealed, shaken at room temperature overnight and measured for bound radioligand in a MicroBeta liquid scintillation counter (Wallac, Gaithersburg, Md.). The standard curve is determined for each experiment by performing a nonlinear regression (exponential decay) analysis of cpm measured for the cAMP standards vs. their log concentrations, and test sample values are determined by using Prism software (Graphpad Software Inc., San Diego, Calif.) and are shown in Table II and FIG. 1. FIG. I illustrates the antagonist activity of Peptide 1.
The intrinsic activity of an SRIF antagonist is the percent reversal of the SSTR2, activation by SRIF or MK678, wherein 0% is defined by cAMP levels in samples treated with forskolin plus SRIF or MK678 and 100% is the cAMP level measured after treatment with forskolin alone. Therefore, increased intrinsic activity of a test compound indicates increased antagonist activity of said test compound.
FIG. […]
An inverse agonist is a compound that is not only a pure antagonist (i.e. lacking agonist activity), but also blocks the constitutive activity of an unoccupied receptor. One indication of inverse agonist activity is the ability of a SRIF antagonist to increase cAMP levels in the absence of added SRIF. […]

T1 sequence (P30680 whole entry): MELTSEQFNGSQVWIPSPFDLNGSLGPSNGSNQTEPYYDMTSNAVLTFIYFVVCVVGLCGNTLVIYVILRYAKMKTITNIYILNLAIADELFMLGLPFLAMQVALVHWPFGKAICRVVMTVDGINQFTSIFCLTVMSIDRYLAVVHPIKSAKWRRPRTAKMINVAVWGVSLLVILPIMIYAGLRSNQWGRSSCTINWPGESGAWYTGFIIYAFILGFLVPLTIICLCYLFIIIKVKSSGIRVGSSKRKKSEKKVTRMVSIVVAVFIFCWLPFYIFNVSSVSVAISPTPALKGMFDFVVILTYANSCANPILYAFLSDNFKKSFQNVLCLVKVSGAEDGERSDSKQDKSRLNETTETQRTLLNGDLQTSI
T2 sequence (P30680 whole entry): as above

Compound	Inhibition Zone [1] [mm]	Emax (rat SSTR2) [%]	also measured
CC(C)[C@@H]1NC(=O)[C@H](CCCCN)NC(=O)[C@@H](Cc2c[nH]c3ccccc23)NC(=O)[C@H](Cc2ccc(O)cc2)NC(=O)[C@@H](NC(=O)[C@H](N)Cc2ccc3ccccc3c2)CSSC[C@@H](C(=O)N[C@H](C(N)=O)[C@@H](C)O)NC1=O [BIM 23014C, reference compound]			SGH (Male Sprague-Dawley rats; 5 μg peptide 1 group, 10 μg BIM 23014C at 60 min, sample 75 min): 7.0 ng/mL; SGH (Male Sprague-Dawley rats; 5 μg peptide 1 group, 60 min (time of 10 μg BIM 23014C dose)): 11.4 ng/mL; serum GH levels after SRIF agonist (Male Sprague-Dawley rats; 10 μg at 60 minutes): induces the expected reduction in serum GH levels; SGH (Male Sprague-Dawley rats; 25 μg peptide 1 group, 10 μg BIM 23014C at 60 min, sample 75 min): 6.8 ng/mL; SGH (Male Sprague-Dawley rats; 25 μg peptide 1 group, 60 min (time of 10 μg BIM 23014C dose)): 13.1 ng/mL; SGH (Male Sprague-Dawley rats; 50 μg peptide 1 group, 10 μg BIM 23014C at 60 min, sample 75 min): 3.5 ng/mL; SGH (Male Sprague-Dawley rats; 50 μg peptide 1 group, 60 min (time of 10 μg BIM 23014C dose)): 17.1 ng/mL
CC[C@@H](C)[C@@H](NC(=O)[C@@H](Cc1ccccc1)NC(=O)[C@@H](Cc1c[nH]cn1)NC(C)=O)C(=O)N[C@H](CCCNC(=N)N)C(=O)N[C@H](Cc1c[nH]c2ccccc12)C(=O)N[C@H](C)C(N)=O [His Phe Ile Arg Trp Ala] (Ac-[dH][dF][dI][dR][dW][dA]-NH2)	15		
CC[C@@H](C)[C@@H](NC(=O)[C@@H](Cc1ccccc1)NC(=O)[C@@H](Cc1c[nH]cn1)NC(C)=O)C(=O)N[C@H](CCCNC(=N)N)C(=O)N[C@H](Cc1c[nH]c2ccccc12)C(=O)N[C@H](CC(N)=O)C(N)=O [His Phe Ile Arg Trp Asn] (Ac-[dH][dF][dI][dR][dW][dN]-NH2)	15		
CC[C@@H](C)[C@@H](NC(=O)[C@@H](Cc1c[nH]c2ccccc12)NC(=O)[C@@H](CCCNC(=N)N)NC(=O)[C@H](NC(=O)[C@@H](Cc1ccccc1)NC(=O)[C@@H](Cc1c[nH]cn1)NC(C)=O)[C@H](C)CC)C(N)=O [His Phe Ile Arg Trp Ile] (Ac-[dH][dF][dI][dR][dW][dI]-NH2)	16		
CC[C@@H](C)[C@@H](NC(=O)[C@@H](Cc1ccc(O)cc1)NC(=O)[C@@H](Cc1c[nH]c2ccccc12)NC(C)=O)C(=O)N[C@H](CCCNC(=N)N)C(=O)N[C@H](Cc1c[nH]c2ccccc12)C(=O)N[C@H](Cc1ccccc1)C(N)=O [Peptide 23, w-y-i-r-w-f] (Ac-[dW][dY][dI][dR][dW][dF]-NH2)		5.64	
CC[C@@H](C)[C@@H](NC(=O)[C@@H](CCCNC(=N)N)NC(=O)[C@@H](Cc1ccccc1)NC(C)=O)C(=O)N[C@H](CCCNC(=N)N)C(=O)N[C@H](Cc1c[nH]c2ccccc12)C(=O)N[C@H](Cc1ccccc1)C(N)=O [Peptide 25, f-r-i-r-w-f] (Ac-[dF][dR][dI][dR][dW][dF]-NH2)		10.8	
CC[C@@H](C)[C@@H](NC(=O)[C@@H](Cc1ccccc1)NC(=O)[C@@H](Cc1c[nH]cn1)NC(C)=O)C(=O)N[C@H](CCCCN)C(=O)N[C@H](Cc1c[nH]c2ccccc12)C(=O)N[C@H](Cc1ccccc1)C(N)=O [Peptide 27, h-f-i-k-w-f] (Ac-[dH][dF][dI][dK][dW][dF]-NH2)		71.2	
CC(=O)N[C@H](Cc1c[nH]cn1)C(=O)N[C@H](Cc1ccccc1)C(=O)N[C@@H](C(=O)N[C@H](CCCNC(=N)N)C(=O)N[C@H](Cc1c[nH]c2ccccc12)C(=O)N[C@H](Cc1ccccc1)C(N)=O)C(C)C [Peptide 28, h-f-v-r-w-f] (Ac-[dH][dF][dV][dR][dW][dF]-NH2)		71.2	

The next lines start with results.

Inhibition Zone [1] [mm]	Emax (rat SSTR2) [%]	Compound	also measured
16		CC[C@@H](C)[C@@H](NC(=O)[C@@H](Cc1ccccc1)NC(=O)[C@@H](Cc1c[nH]cn1)NC(C)=O)C(=O)N[C@H](CCCNC(=N)N)C(=O)N[C@H](Cc1c[nH]c2ccccc12)C(=O)N[C@H](CCC(N)=O)C(N)=O [His Phe Ile Arg Trp Gln] (Ac-[dH][dF][dI][dR][dW][dQ]-NH2)	
13		CC[C@@H](C)[C@@H](NC(=O)[C@@H](Cc1ccccc1)NC(=O)[C@@H](Cc1c[nH]cn1)NC(C)=O)C(=O)N[C@H](CCCNC(=N)N)C(=O)N[C@H](Cc1c[nH]c2ccccc12)C(=O)NCC(N)=O [His Phe Ile Arg Trp Gly] (Ac-[dH][dF][dI][dR][dW]G-NH2)	
15		CC[C@@H](C)[C@@H](NC(=O)[C@@H](Cc1ccccc1)NC(=O)[C@@H](Cc1c[nH]cn1)NC(C)=O)C(=O)N[C@H](CCCNC(=N)N)C(=O)N[C@H](Cc1c[nH]c2ccccc12)C(=O)N[C@H](CC(C)C)C(N)=O [His Phe Ile Arg Trp Leu] (Ac-[dH][dF][dI][dR][dW][dL]-NH2)	
18		CC[C@@H](C)[C@@H](NC(=O)[C@@H](Cc1ccccc1)NC(=O)[C@@H](Cc1c[nH]cn1)NC(C)=O)C(=O)N[C@H](CCCNC(=N)N)C(=O)N[C@H](Cc1c[nH]c2ccccc12)C(=O)N[C@H](CCSC)C(N)=O [His Phe Ile Arg Trp Met] (Ac-[dH][dF][dI][dR][dW][dM]-NH2)	
	27.4	CC[C@@H](C)[C@@H](NC(=O)[C@@H](Cc1c[nH]cn1)NC(=O)[C@@H](Cc1c[nH]c2ccccc12)NC(C)=O)C(=O)N[C@H](CCCNC(=N)N)C(=O)N[C@H](Cc1c[nH]c2ccccc12)C(=O)N[C@H](Cc1ccccc1)C(N)=O [Peptide 22, w-h-i-r-w-f] (Ac-[dW][dH][dI][dR][dW][dF]-NH2)	
	65.2	CC[C@@H](C)[C@@H](NC(=O)[C@@H](Cc1c[nH]cn1)NC(=O)[C@@H](Cc1ccccc1)NC(C)=O)C(=O)N[C@H](CCCNC(=N)N)C(=O)N[C@H](Cc1c[nH]c2ccccc12)C(=O)N[C@H](Cc1ccccc1)C(N)=O [Peptide 24, f-h-i-r-w-f] (Ac-[dF][dH][dI][dR][dW][dF]-NH2)	
